Experimental data as given in the NIST ThermoML archive (doi:10.1016/j.jct.2019.105891).

Legend:
[1] = refractive index (Na D-line) (dimensionless); xn = mol fraction of the nth substance listed; conditions: 100 kPa, Liquid, Standard Abbe refractometry
[2] = xn = mol fraction of the nth substance listed; conditions: 100 kPa, Liquid, Falling or rolling sphere viscometry

Nc1ccccc1 [aniline] + CCn1cc[n+](C)c1.F[B-](F)(F)F
Conditions	refractive index, 293.15 K	refractive index, 303.15 K	refractive index, 313.15 K	refractive index, 323.15 K	viscosity, 293.15 K [mPa·s]	viscosity, 303.15 K [mPa·s]	viscosity, 313.15 K [mPa·s]	viscosity, 323.15 K [mPa·s]
[1], x2 = 0	1.58481	1.58152	1.57823	1.57494	–	–	–	–
[1], x2 = 0.1008	1.56571	1.56202	1.55833	1.55464	–	–	–	–
[1], x2 = 0.2035	1.54192	1.53814	1.53436	1.53058	–	–	–	–
[1], x2 = 0.3059	1.52125	1.51691	1.51285	1.5078	–	–	–	–
[1], x2 = 0.4053	1.50001	1.49592	1.49183	1.48774	–	–	–	–
[1], x2 = 0.5073	1.47963	1.47616	1.47269	1.46922	–	–	–	–
[1], x2 = 0.6013	1.46255	1.45885	1.45515	1.45245	–	–	–	–
[1], x2 = 0.7046	1.44852	1.44449	1.44126	1.43823	–	–	–	–
[1], x2 = 0.8067	1.43589	1.43188	1.42857	1.42556	–	–	–	–
[1], x2 = 0.9059	1.42458	1.42066	1.41748	1.41454	–	–	–	–
[2], x2 = 0	–	–	–	–	4.38	3.24	2.47	1.95
[2], x2 = 0.1008	–	–	–	–	6.84	4.88	3.66	2.66
[2], x2 = 0.2035	–	–	–	–	9.46	6.99	5.16	3.89
[2], x2 = 0.3059	–	–	–	–	12.58	8.93	6.81	5.07
[2], x2 = 0.4053	–	–	–	–	15.93	11.33	8.59	6.51
[2], x2 = 0.5073	–	–	–	–	20.31	14.07	10.48	7.99
[2], x2 = 0.6013	–	–	–	–	24.51	17.1	12.51	9.51
[2], x2 = 0.7046	–	–	–	–	28.93	20.39	14.91	11.06
[2], x2 = 0.8067	–	–	–	–	33.76	23.93	17.35	12.99
[2], x2 = 0.9059	–	–	–	–	39.55	27.15	19.68	14.9
